In patent publication US6737383B1, “Herbicidal oxadiazolidines” (priority 1999, dated 2004):

What was measured:
bedstraw = assay: Test B pre/postemergence bedstraw; format: in vivo, Galium aparine
Procedure, shortened: (§1)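 Test chemicals in a non-phytotoxic solvent mixture with surfactant were sprayed preemergence onto planted seeds and postemergence onto plants 2 to 18 cm tall (1- to 4-leaf stage). After twelve to sixteen days in a greenhouse, injury was visually rated against untreated controls from 0 (no effect) to 10 (complete control).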

blackgrass = assay: Test B pre/postemergence blackgrass; format: in vivo, Alopecurus myosuroides
Procedure, shortened: as §1

surinam grass = assay: Test B pre/postemergence surinam grass; format: in vivo, Brachiaria decumbens
Procedure, shortened: as §1

corn = assay: Test B pre/postemergence corn; format: in vivo, Zea mays
Procedure, shortened: as §1

crabgrass = assay: Test B pre/postemergence crabgrass; format: in vivo, Digitaria sanguinalis
Procedure, shortened: as §1

giant foxtail = assay: Test B pre/postemergence giant foxtail; format: in vivo, Setaria faberii
Procedure, shortened: as §1

rape = assay: Test B pre/postemergence rape; format: in vivo, Brassica napus
Procedure, shortened: as §1

sugar beet = assay: Test B pre/postemergence sugar beet; format: in vivo, Beta vulgaris
Procedure, shortened: as §1

velvetleaf = assay: Test B pre/postemergence velvetleaf; format: in vivo, Abutilon theophrasti
Procedure, shortened: as §1

wheat = assay: Test B pre/postemergence wheat; format: in vivo, Triticum aestivum
Procedure, shortened: as §1

wild oat = assay: Test B pre/postemergence wild oat; format: in vivo, Avena fatua
Procedure, shortened: as §1

purple nutsedge = assay: Test B pre/postemergence purple nutsedge; format: in vivo, Cyperus rotundus
Procedure, shortened: as §1

rice = assay: Test B flood test rice; format: in vivo, Oryza sativa
Procedure, shortened: (§2)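 Plants were grown to the 2-leaf stage before treatment with test chemical, then held in a greenhouse for twelve to sixteen days. Injury was visually rated against untreated controls on a 0–10 scale, where 0 is no effect and 10 is complete control.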

smallflower flatsedge = assay: Test B flood test smallflower flatsedge; format: in vivo, Cyperus difformis
Procedure, shortened: as §2

duck salad = assay: Test B flood test duck salad; format: in vivo, Heteranthera limosa
Procedure, shortened: as §2

bamyardgrass = assay: Test B flood test barnyardgrass; format: in vivo, Echinochloa crus-galli
Procedure, shortened: as §2

[1] = Postemergence, Rate 62 g/ha, scale 0 to 10, 0 is no effect, 10 is complete control
[2] = Postemergence, Rate 250 g/ha, scale 0 to 10, 0 no effect, 10 complete control
[3] = Preemergence, Rate 62 g/ha, scale 0 to 10, 0 is no effect, 10 is complete control
[4] = Preemergence, Rate 125 g/ha, scale 0 to 10 (0 no effect, 10 complete control)
[5] = Preemergence, Rate 250 g/ha, scale of 0 to 10 where 0 is no effect and 10 is complete control
[6] = Preemergence, Rate 500 g/ha, scale 0 (no effect) to 10 (complete control)
[7] = Rate 125 g/ha, Postemergence, scale 0 to 10, 0 no effect, 10 complete control
[8] = Rate 500 g/ha, Postemergence, 0 to 10 scale (0 no effect, 10 complete control)
[9] = Rate 31 g/ha, Postemergence section (flood test species), scale 0 to 10
[10] = Rate 125 g/ha, Postemergence section (flood test species), scale 0 to 10, 0 no effect, 10 complete control
[11] = flood test, listed under Postemergence, Rate 250 g/ha, scale 0 to 10, 0 no effect, 10 complete control

CC(C)N(C(=O)n1oc(=O)n(-c2ccccc2OC(F)(F)F)c1=O)c1ccc(F)cc1 [Compound 14]
Bedstraw plant response rating (bedstraw; [1]): 0
Bedstraw plant response rating (bedstraw; [2]): 0
Plant response rating, Bedstraw (bedstraw; [3]): 0
Plant response rating, Bedstraw (bedstraw; [4]): 0
Plant response rating, Bedstraw (bedstraw; [5]): 0
Bedstraw plant response rating (bedstraw; [6]): 4
Bedstraw plant response rating (bedstraw; [7]): 0
Bedstraw plant response rating (bedstraw; [8]): 1
Blackgrass plant response rating (blackgrass; [1]): 0
Blackgrass plant response rating (blackgrass; [2]): 0
Plant response rating, Blackgrass (blackgrass; [3]): 0
Plant response rating, Blackgrass (blackgrass; [4]): 0
Plant response rating, Blackgrass (blackgrass; [5]): 0
Blackgrass plant response rating (blackgrass; [6]): 2
Blackgrass plant response rating (blackgrass; [7]): 0
Blackgrass plant response rating (blackgrass; [8]): 3
B. signalgrass plant response rating (surinam grass; [1]): 0
B. signalgrass plant response rating (surinam grass; [2]): 0
Plant response rating, B. signalgrass (surinam grass; [3]): 0
Plant response rating, B. signalgrass (surinam grass; [4]): 0
Plant response rating, B. signalgrass (surinam grass; [5]): 0
B. signalgrass plant response rating (surinam grass; [6]): 2
B. signalgrass plant response rating (surinam grass; [7]): 0
B. signalgrass plant response rating (surinam grass; [8]): 0
Corn plant response rating (corn; [1]): 0
Corn plant response rating (corn; [2]): 0
Plant response rating, Corn (corn; [3]): 0
Plant response rating, Corn (corn; [4]): 0
Plant response rating, Corn (corn; [5]): 0
Corn plant response rating (corn; [6]): 4
Corn plant response rating (corn; [7]): 0
Corn plant response rating (corn; [8]): 0
Crabgrass plant response rating (crabgrass; [1]): 0
Crabgrass plant response rating (crabgrass; [2]): 0
Plant response rating, Crabgrass (crabgrass; [3]): 0
Plant response rating, Crabgrass (crabgrass; [4]): 0
Plant response rating, Crabgrass (crabgrass; [5]): 9
Crabgrass plant response rating (crabgrass; [6]): 9
Crabgrass plant response rating (crabgrass; [7]): 0
Crabgrass plant response rating (crabgrass; [8]): 8
Giant foxtail plant response rating (giant foxtail; [1]): 0
Giant foxtail plant response rating (giant foxtail; [2]): 0
Plant response rating, Giant foxtail (giant foxtail; [3]): 6
Plant response rating, Giant foxtail (giant foxtail; [4]): 9
Plant response rating, Giant foxtail (giant foxtail; [5]): 9
Giant foxtail plant response rating (giant foxtail; [6]): 9
Giant foxtail plant response rating (giant foxtail; [7]): 0
Giant foxtail plant response rating (giant foxtail; [8]): 3
Rape plant response rating (rape; [1]): 0
Rape plant response rating (rape; [2]): 0
Plant response rating, Rape (rape; [3]): 0
Plant response rating, Rape (rape; [4]): 0
Plant response rating, Rape (rape; [5]): 0
Rape plant response rating (rape; [6]): 0
Rape plant response rating (rape; [7]): 0
Rape plant response rating (rape; [8]): 0
Sugarbeets plant response rating (sugar beet; [1]): 0
Sugarbeets plant response rating (sugar beet; [2]): 0
Plant response rating, Sugarbeets (sugar beet; [3]): 0
Plant response rating, Sugarbeets (sugar beet; [4]): 0
Plant response rating, Sugarbeets (sugar beet; [5]): 0
Sugarbeets plant response rating (sugar beet; [6]): 0
Sugarbeets plant response rating (sugar beet; [7]): 0
Velvetleaf plant response rating (velvetleaf; [1]): 0
Velvetleaf plant response rating (velvetleaf; [2]): 0
Plant response rating, Velvetleaf (velvetleaf; [3]): 0
Plant response rating, Velvetleaf (velvetleaf; [4]): 0
Plant response rating, Velvetleaf (velvetleaf; [5]): 0
Velvetleaf plant response rating (velvetleaf; [6]): 0
Velvetleaf plant response rating (velvetleaf; [7]): 0
Wheat plant response rating (wheat; [1]): 0
Wheat plant response rating (wheat; [2]): 0
Plant response rating, Wheat (wheat; [3]): 0
Plant response rating, Wheat (wheat; [4]): 0
Plant response rating, Wheat (wheat; [5]): 0
Wheat plant response rating (wheat; [6]): 0
Wheat plant response rating (wheat; [7]): 0
Wild oats plant response rating (wild oat; [1]): 0
Wild oats plant response rating (wild oat; [2]): 0
Plant response rating, Wild oats (wild oat; [4]): 0
Plant response rating, Wild oats (wild oat; [5]): 0
Wild oats plant response rating (wild oat; [6]): 0
Wild oats plant response rating (wild oat; [7]): 0
Nutsedge plant response rating (purple nutsedge; [1]): 0
Nutsedge plant response rating (purple nutsedge; [2]): 0
Plant response rating, Nutsedge (purple nutsedge; [3]): 0
Plant response rating, Nutsedge (purple nutsedge; [4]): 0
Plant response rating, Nutsedge (purple nutsedge; [5]): 0
Nutsedge plant response rating (purple nutsedge; [6]): 0
Nutsedge plant response rating (purple nutsedge; [7]): 0
Nutsedge plant response rating (purple nutsedge; [8]): 0
Rice plant response rating (rice; [1]): 0
Rice plant response rating (rice; [9]): 0
Rice plant response rating (rice; [10]): 0
Rice plant response rating (rice; [11]): 0
S. Flatsedge plant response rating (smallflower flatsedge; [1]): 0
S. Flatsedge plant response rating (smallflower flatsedge; [10]): 0
S. Flatsedge plant response rating (smallflower flatsedge; [11]): 0
Ducksalad plant response rating (duck salad; [1]): 0
Ducksalad plant response rating (duck salad; [9]): 0
Ducksalad plant response rating (duck salad; [10]): 0
Ducksalad plant response rating (duck salad; [11]): 0
Barnyardgrass plant response rating (bamyardgrass; [1]): 0
Barnyardgrass plant response rating (bamyardgrass; [9]): 0
Barnyardgrass plant response rating (bamyardgrass; [10]): 0
Barnyardgrass plant response rating (bamyardgrass; [11]): 0
